Measured values from US20110191897A1, “Plants Tolerant to HPPD Inhibitor Herbicides” (Bayer CropScience AG, priority 2009, published 2011).
Where “and” joins values, the source holds several entries; their conditions need not be identical. Identical values can stand only once.

Key:
[1] = system: T1 tobacco plants with Arabidopsis HPPD; test: Glasshouse spray trial, herbicidal damage; format: in vivo, Nicotiana tabacum; conditions: 100 gAl/ha, 7DAT
Method: (§1) T0 Tobacco plants containing either the gene from Arabidopsis coding for HPPD or the gene FMP37e from Blepharisma japonicum coding for FMP37 HPPD, mentioned above (Example 3), were transferred to the glasshouse (28/20° C.), to develop further and produce seeds. Those seeds were harvested and put on soil (ED73 mixed with sand and osmocote Pro) to germinate in the glasshouse (28/20° C.). Three to four weeks later, plantlets were transferred to single pots containing the soil mentioned above. Two weeks later, plants of a size 4-6 cm diameter were sprayed with either • tembotrione at 100 Al/ha prepared from a WP20 (wettable powder 20%) formulation supplemented with ammonium sulfate and methyl ester raps oil, or • isoxaflutole at 100 Al/ha prepared from a WP20 formulation supplemented with ammonium sulfate and methyl ester raps oil, or • bicyclopyrone at 100 gAl/ha prepared from a WP20 formulation supplemented with ammonium sulfate and methyl ester raps oil, or • “blind formulation” made from a WP20 formulation without active ingredient (Al) supplemented with ammonium sulfate and methyl ester raps oil, and were then transferred to a growth chamber with adequate light conditions (20000Lux).

[2] = system: T1 tobacco plants with FMP37e coding for the HPPD FMP37; test: Glasshouse spray trial, herbicidal damage; format: in vivo, Nicotiana tabacum; conditions: line 113, individual plants, 100 gAl/ha, 7DAT
Method: as §1

[3] = system: tobacco plants with FMP37t-h, PAT and 2mEPSPS (pFCO112); test: Glasshouse trial of tobacco with three tolerance genes; format: in vivo, Nicotiana tobacum; conditions: 9 DAT
Method: A binary vector for tobacco transformation is, for example, constructed with the CaMV35 promoter driving the expression of the gene FMP37t-h (SEQ ID No. 15), with a codon usage optimized for the expression in dicotyledoneous plants and at its 5′ extremity was added a sequence coding for an OTP, and further upstream a sequence TEV (Tobacco etch virus) to improve the stability of the mRNA in plants followed by the CaMV35S terminator. The nucleotide sequence of the gene FMP37t-h is given in SEQ ID No. 15. Additionally, the transformation vector also contains a PAT gene cassette in which the gene is driven by a CaVM35S promoter and followed by a CaMV35S terminator for glufosinate based selection during the transformation process and a 2mEPSPS gene cassette in which the gene is driven by an histone promoter from Arabidopsis to confer tolerance to the herbicide glyphosate to the transformed plants (see FIG. 3 H). The binary vector was called pFCO112. The above vector was used to transform leaf disks obtained from Nicotiana tobacum plants, according to Example 3.
Transgenic tobacco plants were transferred to the greenhouse and treated with glyphosate at a rate of 1121 g Al/ha. Seeds were produced from such tolerant tobacco plants and harvested. These seeds were put on soil to germinate in the glasshouse. Three to four weeks later, 50 plantlets per event were transferred to single pots. Two weeks later, plants of a size 4-6 cm were sprayed either with:
[…] […] Non-transgenic tobacco plants were completely killed by treatment using one or more of the above herbicides.

[4] = system: T0 rice plants with FMP37e; test: Rice glasshouse trial, response to tembotrione; format: in vivo; conditions: 100 g AI/ha, 7 DAT
Method: (§2) T0 rooted plantlets (either selected on phosphinothricin alone or on phosphinothricin supplemented with tembotrione) were transferred to soil in the glasshouse. Following an acclimation period, sufficiently grown plants were treated with the different HPPD inhibitor herbicides. As an example, T0 plants were sprayed with tembotrione of formulation type WP20 100 g Al/ha supplemented with ammonium sulfate and methyl ester raps oil. Seven days after the spray application, the symptoms due to the application of the herbicide were evaluated and compared the symptoms observed on wild type plants submitted to the same treatment.
(§3) The plants were classified in three categories based on the phenotype developed in response to the herbicide seven days after the treatment.

wild type rice plants = test: Rice glasshouse trial, response to tembotrione; format: in vivo; conditions: 100 g AI/ha, 7 DAT
Method: as §2, §3

[5] = system: tobacco calli containing HPPD SEQ ID No. 7 (Blepharisma japonicum); test: Rooting of transformed tobacco calli on tembotrione media; format: cell-based, Nicotiana tabacum; conditions: 6 to 12 weeks
Method: The leaf disks were co-cultivated for 2 days with Agrobacterium tumefaciens cells containing either the binary vector FMP37ebv or AtHPPDbv. Then the leaf disks were transferred to a media allowing the regeneration of shoots for 6 weeks on MS (Musharige and Skoog, (1962), Physiol Plant 15(3): 473-497) media supplemented with BAP (1 mg/mL; Benzylaminopurine), carbenicillin (250 mg/mL), cefotaxine (250 mg/mL), kanamycin (75 mg/mL) and tembotrione (10^−6 M)
Regenerated calli were transferred on media to induce the development of roots for 6 to 12 weeks: MS (½), supplemented with carbenicillin (250 mg/mL), cefotaxine (250 mg/mL), kanamycin (75 mg/mL), and tembotrione (10^−6 M).
Regenerated shoot calli from a cell transformed with a nucleic acid sequence encoding an HPPD comprising SEQ ID No. 11 (Arabidopsis thaliana) or SEQ ID No. 7 (Blepharisma japonicum) were transferred to a media inducing rot growth which media was further supplemented with the HPPD inhibitor tembotrione for 6 to 12 weeks.

[6] = target: T1, Arabidopsis thaliana HPPD (SEQ ID No. 10) (Arabidopsis thaliana, UniProt P93836); test: Spectrophotometric HPPD activity assay in presence of HPPD inhibitors; format: biochemical
T1 construct: made in house; host or cells: E. coli K-12 BL21 (pQE30-AtHPPD)
T1 sequence (P93836 with tags, fused parts or gaps): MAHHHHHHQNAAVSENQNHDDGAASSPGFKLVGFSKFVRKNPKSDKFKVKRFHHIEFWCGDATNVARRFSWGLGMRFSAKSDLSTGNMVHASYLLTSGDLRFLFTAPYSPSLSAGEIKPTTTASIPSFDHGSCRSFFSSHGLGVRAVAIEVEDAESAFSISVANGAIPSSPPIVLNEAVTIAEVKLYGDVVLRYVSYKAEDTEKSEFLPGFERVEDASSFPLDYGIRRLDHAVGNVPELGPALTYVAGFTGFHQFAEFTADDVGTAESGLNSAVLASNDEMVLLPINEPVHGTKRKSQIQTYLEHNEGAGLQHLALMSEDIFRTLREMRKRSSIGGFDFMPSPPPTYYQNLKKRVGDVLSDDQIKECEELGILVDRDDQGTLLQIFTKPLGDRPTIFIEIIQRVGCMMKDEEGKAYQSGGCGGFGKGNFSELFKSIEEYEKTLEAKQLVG

Structure (SMILES): CS(=O)(=O)c1ccc(C(=O)C2C(=O)CCCC2=O)c(Cl)c1COCC(F)(F)F [Tembotrione, 2-[2-chloro-4-(methylsulfonyl)-3-[(2,2,2,-tri-fluoroethoxy)methyl]benzoyl]-1,3-cyclo-hexanedione]
- % injury ([1]; line 252, individual plants): 40%
- % injury ([1]; line 258, individual plants): 100%
- % injury ([1]; line 327, individual plants): 40% and 50%
- % injury [2]: 5% and 10% (2×) and 40% and 70%
- number of plants in Class I (no injuries) ([3]; line 634, 100 g AI/ha): 0
- number of plants in Class II (injury: 10-40%) ([3]; line 634, 100 g AI/ha): 3
- number of plants in Class III (injury: 41-100%) ([3]; line 634, 100 g AI/ha): 7
- number of plants in Class I (no injuries) ([3]; line 713, 100 g AI/ha): 0
- number of plants in Class II (injury: 10-40%) ([3]; line 713, 100 g AI/ha): 6
- number of plants in Class III (injury: 41-100%) ([3]; line 713, 100 g AI/ha): 4
- number of plants in Class I (no injuries) [4]: 1
- number of plants in Class II (injury: 10-40%) [4]: 6
- number of plants in Class III (injury: 41-100%) [4]: 16
- number of plants in Class II (injury: 10-40%) (wild type rice plants): 0
- % Elongation & rooting on 10^−6M tembotrione [5]: 65%
- IC50 [6]: < 2510 nM
- % Inhibition ([6]; 1.0E−05 M): 97%
- % Inhibition ([6]; 2.5E−04 M): 97%
- % Inhibition ([6]; 2.5E−05 M): 93%
- % Inhibition ([6]; 2.5E−06 M): 82%
- % Inhibition ([6]; 5.0E−06 M): 90%
- inhibition at 5 µM ([6]; 5.0 × 10^−6M inhibitor (Table 4), read-out: percentage of inhibition): 92%
- % Inhibition ([6]; 6.3E−05 M): 97%
